# How the values were obtained:
# HT-1080-FAP cells = test: cell uptake in HT-1080-FAP cells; assay type: cell-based, human
# Procedure: (§1) The human fibrosarcoma cell lines HT-1080 and HT-1080-FAP transferred with human FAP gene were both cultured in Dulbecco modified Eagle medium supplemented with 10% fetal bovine serum (Gibco, USA) at 37℃/5% carbon dioxide. For cell uptake experiments, HT-1080-FAP cells (~ 1 × 10^5/well) or HT-1080 (~ 1 × 10^5/well) were seeded in 24-well plates for 24–48 h and incubated at 37℃ with radiolabeled compounds (74 kBq/well) in 0.5 mL of serum-free medium for indicated times. Non-specific binding was determined by co-incubating with 100 μM FAP inhibitor UAMC1110. For competitive FAP binding assays, HT-1080-FAP cells were incubated with [^177Lu]Lu-FAPI-04 (74 kBq/well) in the presence of different concentrations (10^−3–10^4 nM) of competing non-radioactive ligands. For internalization experiments, the radiotracer-incubated cells were washed twice with PBS (pH 7.4), followed by glycine–HCl (0,05 M, pH = 2.8) solution to distinguish between cell surface–bound (acid-releasable) and internalized (acid-resistant) radioligand. For efflux experiments, cells were preincubated with [^177Lu]21 or [^177Lu]Lu-FAPI-04 for 1 h and subsequently incubated at 37 °C in a medium free of radiotracer and serum for different time periods. The medium was removed and the cells were washed twice with cold PBS (pH 7.4) and subsequently lysed with 0.5 mL of NaOH (1 M). Cell lysates were collected and the radioactivity was determined using a γ-counter.
# HT-1080 cells = test: cell uptake in HT-1080 (FAP negative) cells; assay type: cell-based, human
# Procedure: as §1, with “The medium was removed and the cells were washed twice with cold PBS (pH 7.4) and subsequently lysed with 0.5 mL of NaOH (1 M).” left out
# [1] = in vivo stability in ICR mice, blood samples (radio-HPLC)
# Procedure: (§2) [^18F]21 or [^177Lu]21 (50 μCi, 10 μL) was added to PBS (90 μL) or murine serum (90 μL) and the mixture was incubated at 37 °C for a certain time ([^18F]21: 2 h, [^177Lu]21: 8 d). The PBS mixture was injected directly into the radio-HPLC for analysis. The murine serum was precipitated with 0.1 mL of acetonitrile and centrifuged (10,000 rpm, 5 min). The supernatant was measured and analyzed by the radio-HPLC to determine the stability. For in vivo stability study, the radio tracers were injected into the tail vein of ICR mice and samples of blood were collected after a certain time post injection (pi) ([^18F]21: 4 h, [^177Lu]21: 9 h). The plasma proteins were precipitated using an equal volume of acetonitrile and centrifuged (10,000 rpm, 5 min). The RCP of radio tracer in supernatants were analyzed and quantified by radio-HPLC. The radio-HPLC method was as follows: A: 0.1% TFA in H2O, B: ACN, 0–10 min, 0–100% B. The flow rate was 1 mL/min, and the C18 column (4.6 × 150 mm, 5 μm, ZORBAX, Agilent) was used. When using HPLC to assess the stability of [^177Lu]21, the effluent was collected every 30 s due to its less radioactivity, and samples were measured by an automatic γ-counter (2480 Wizard2, Perkin Elmer). The counted samples were plotted as intensity (cpm) against fraction.
# [2] = in vitro stability in PBS or murine serum (radio-HPLC); assay type: in vitro ADME
# Procedure: as §2
# HT-1080-FAP xenograft = test: SPECT imaging, HT-1080-FAP xenograft; assay type: in vivo, BALB/C-nu/nu mice; conditions: about 37 MBq i.v.
# Procedure: (§3) All animal experiments were conducted in compliance with a protocol approved by the First Affiliated Hospital of Sun Yat-sen University Institutional Animal Care and Use Committee. BALB/C-nu/nu mice (4–5-week old with body weight of 16–22 g) were purchased from GemPharmatech Co., Ltd. Mice were housed under standard conditions with temperature and light control (12-h-light/12-h-dark cycle) and had free access to water and food. For the tumor model, HT-1080-FAP or HT-1080 cells (5 × 10^6) were subcutaneously injected into the right or left flank of nude mice, respectively. As the tumor diameter reached 3–4 mm, mice were treated with radioligands. Micro-PET and SPECT imaging studies, as well as biodistribution, were conducted when the tumor diameter reached 5–10 mm.
# The mice bearing HT-1080-FAP or HT-1080 xenografts were injected with about 37 MBq of [^177Lu]21 via the tail vein, and SPECT (Siemens, Symbia Intevo Bold, Germany) was performed at 2 h to 8 d after injection. The SPECT parameters were as follows: medium-energy collimator, energy peaks of 113 and 208 keV, matrix of 256 × 256, and scan duration of 10 min.
# HT-1080-FAP xenografts = test: radionuclide treatment of HT-1080-FAP xenografts; assay type: in vivo, BALB/C-nu/nu mice
# Procedure: as §3
# Radionuclide therapy was performed when the diameter of HT-1080-FAP xenografts reached 3–4 mm. The mice were randomly divided into 4 groups (n = 4) and intravenously injected with [^177Lu]21 (24.05 MBq), [^177Lu]21 (9.25 MBq), [^177Lu]Lu-FAPI-04 (24.05 MBq) and saline, respectively. Tumor volume (volume = length × width^2/2) and mouse weight were measured every 2–3 d. Endpoint criteria were defined as weight loss of more than 15%, tumor volume greater than 1500 mm^3, or active ulcerations of the tumor. […]
structure (smiles),measurement,setting,value
CC(C)(C)[Si](F)(c1ccc(C(=O)NCC(NC(=O)CCC(C(=O)O)N2CCN(CC(=O)[O-])CCN(CC(=O)[O-])CCN(CC(=O)[O-])CC2)C(=O)NCC2CCC(C(=O)NCCCOc3ccc4nccc(C(=O)NCC(=O)N5CC(F)(F)CC5C#N)c4c3)CC2)cc1)C(C)(C)C.[177Lu+3] (stereo not drawn) [[^177Lu]21],cell uptake,HT-1080-FAP cells; 1 h incubation,72.53% ± 3.43
same,cell uptake,HT-1080-FAP cells; 24 h incubation,45.06% ± 2.62
same,cell uptake with competitor,HT-1080-FAP cells; co-incubation with 100 μM FAP inhibitor UAMC1110,could be blocked by FAP inhibitor
same,cell uptake in FAP negative cells,HT-1080 cells,Almost no uptakes
same,metabolization in blood samples (radio-HPLC),"[1]; ICR mice, within 9 h pi",little evidence of any metabolization
same,in vivo stability,[1]; as summarised in discussion,> 90%
same,RCP after incubating in saline and serum,"[2]; 8 days, 37 °C",> 90%
same,in vitro stability,[2]; as summarised in discussion,> 90%
same,time pi up to which high accumulation was observed (SPECT),HT-1080-FAP xenograft,up to 144 h
same,time up to which tumor uptake could be visualized (SPECT),HT-1080-FAP xenograft,up to 6 days
same,suppression of tumor growth versus control,HT-1080-FAP xenografts; 9.25 MBq i.v.,no statistically significant difference in comparison to control
same,average relative tumor volume,"HT-1080-FAP xenografts; 24.05 MBq i.v., end of study",4.55
